Test results taken from US20110178165A1, “TETRAHYDROFURANYL SULFONAMIDES AND PHARMACEUTICAL COMPOSITIONS THEREOF” (Pfizer Inc., priority 2008, published 2011).

Test system: AMPA receptors
Test: AMPA ES cell FLIPR screen (AMPA potentiator assay)
Assay type: cell-based
Details: murine ES cell-derived neurons, FLIPR Fluo-4 calcium, 32 uM AMPA challenge; * = geometric mean of 2 EC50 determinations
Experimental: The murine ES cell line used was E14-Sx1-16C, which has a targeted mutation in the Sox1 gene, a neuroectodermal marker, that offers G418 resistance when the Sox1 gene is expressed (Stem Cell Sciences). ES cells were maintained undifferentiated as previously described (Roach). […] ES cells were plated on gelatin-coated dishes (BD Biosciences), the media was changed daily and the cells were dissociated with 0.05% Trypsin EDTA (Invitrogen) every other day.
Embryoid Body Formation: Prior to embryoid body (EB) formation the ES cells were weaned from FBS onto Knockout Serum Replacement (KSR) (Invitrogen). To form EBs, ES cells were dissociated into a single cell suspension, then 3×10^6 cells were plated in bacteriology dishes (Nunc 4014) and grown as a suspension culture in NeuroEB-I medium that consisted of Knockout™ D-MEM (Invitrogen), supplemented with 10% KSR (Invitrogen), 0.2 mM L-Glutamine (Invitrogen), 0.1 mM MEM non-essential amino acids (Invitrogen), 30 μg/ml Gentamicin (Invitrogen), 1000 u/ml ESGRO (Chemicon), 0.1 mM 2-Mercaptoethanl (Sigma) and 150 ng/ml Transferrin (Invitrogen). The plates were put on a Stovall Belly Button shaker in an atmospheric oxygen incubator. The media was changed on day 2 of EB formation with NeuroEB-I and on day 4 with NeuroEB-II (NeuroEB-I plus 1 μg/ml mNoggin [R&D Systems]).
Neuronal Precursor Selection and Expansion: On day 5 of EB formation, EBs were dissociated with 0.05% Trypsin EDTA, and 4×10^6 cells/100 mm dish were plated on Laminin coated tissue culture dishes in Neuroll-G418 medium that consisted of a base medium of a 1:1 mixture of D-MEM/F12 supplemented with N2 supplements and NeuroBasal Medium supplemented with B27 supplement and 0.1 mM L-Glutamine (all from Invitrogen). The base medium was then supplemented with 10 ng/ml bFGF (Invitrogen), 1 μg/ml mNoggin, 500 ng/ml SHH—N, 100 ng/ml FGF-8b (R&D Systems), 1 μg/ml Laminin and 200 μg/ml G418 (Invitrogen) for selection of neuronal precursors expressing Sox-1. The plates were put in an incubator that contained 2% Oxygen and were maintained in these conditions. During the 6-day selection period, the Neuroll media was changed daily. On day 6, the surviving neuronal precursor foci were dissociated with 0.05% Trypsin EDTA and the cells were plated at a density of 1.5×10^6 cells/100 mm Laminin coated dish in Neuroll-G418 medium. The cells were dissociated every other day for expansion, and prepared for Cryopreservation at passage 3 or 4. The crypreservation medium contained 50% KSR, 10% Dimethyl Sulfoxide (DMSO) (Sigma) and 40% Neurol-G418I medium. Neuronal precursors were cryopreserved at a concentration of 4×10^6 cells/ml and 1 ml/cryovial in a controlled rate freezer overnight then transferred to an ultra-low freezer or liquid nitrogen for long-term storage. […]

Compared with `CC(C)S(=O)(=O)N[C@@H]1COC[C@@]1(O)c1ccc(-c2ccccc2)cc1` (stereo in doubt) [Example 4, N-[(3R,4R)-4-biphenyl-4-yl-4-hydroxytetrahydrofuran-3-yl]propane-2-sulfonamide], `CC(C)S(=O)(=O)N[C@H]1COC[C@]1(O)c1ccc(-c2ccccc2)cc1` [Example 3, N-[(3S,4S)-4-biphenyl-4-yl-4-hydroxytetrahydrofuran-3-yl]propane-2-sulfonamide] is lower in EC50: over 31.6 µM for the first, 1.19 µM for the second. The second is the more potent here.

First: CC(C)S(=O)(=O)N[C@H]1COC[C@]1(O)c1ccc(-c2ccc(C#N)s2)cc1 [Example 1, N-{(3S,4S)-4-[4-(5-cyano-2-thienyl)phenyl]-4-hydroxytetrahydrofuran-3-yl}propane-2-sulfonamide]
Second: CC(C)S(=O)(=O)N[C@@H]1COC[C@@]1(O)c1ccc(-c2ccc(C#N)s2)cc1 [Example 2, N-{(3R,4R)-4-[4-(5-cyano-2-thienyl)phenyl]-4-hydroxytetrahydrofuran-3-yl}propane-2-sulfonamide]
The EC50 of the first is lower: 5.93 µM for the first, over 31.6 µM for the second.
